# Test system: men with abdominal obesity, low to low-normal serum total testosterone levels and the metabolic syndrome
# Assay: Placebo-controlled treatment study in abdominally obese men with low to low-normal testosterone and the metabolic syndrome
# Settings: for increasing insulin sensitivity, treatment group relative to placebo / lowering triglycerides, treatment group relative to placebo / reducing visceral adipose tissue, treatment group relative to placebo: end of treatment
# Protocol: (§1) Approximately 200 men are recruited with abdominal obesity (waist circumference >102 cm), low to low-normal serum total testosterone levels (<450 ng/dL), and the metabolic syndrome per NCEP criteria. NCEP criteria for diagnosis of the metabolic syndrome in men includes 3 of the following 5 components: Fasting glucose≧110 mg/dL, TG≧150 mg/dL, low HDL-C (<40 mg/dL), high waist circumference (>102 cm), BP≧130/≧85 mmHg. Since the study design calls for inclusion of abdominally obese men with waist circumference >102 cm, patients have at least 2 of the other 4 criteria to satisfy the NCEP criteria for the metabolic syndrome. Patients are randomized to placebo or treatment. Fasting blood samples are taken.
# Periodic measurements of insulin/glycemic response to oral glucose tolerance test (OGTT) and insulin sensitivity index, fasting plasma glucose (FPG), fasting lipid profile (includes triglycerides, total cholesterol, low-density lipoprotein cholesterol, non-high-density lipoprotein cholesterol, high-density lipoprotein cholesterol, and free fatty acids), visceral fat mass, and blood pressure are taken.
# as §1, with “taken. After a placebo run in, the treatment group receives daily administration of 0.5 mg N-(2,5-bis-trifluoromethyl-phenyl)-3-oxo-4-aza-4-methyl-5α-androst-1-ene-17β-carboxamide (dutasteride).” for “taken.”
# as §1, with “glucose ≧110” for “glucose≧110”, “taken. After a placebo run in, the treatment group receives daily administration of N-(2-trifluoromethyl-phenyl)-3-oxo-4-aza-4-methyl-5α-androst-1-ene-17β-carboxamide.” for “taken.”
# as §1, with “(≦450” for “(<450”, “glucose ≧110” for “glucose≧110”
# [1] = Example 6: daily administration (dose not given)
SMILES,tolerability of the treatment [1],"increasing insulin sensitivity, treatment group relative to placebo [1]","lowering triglycerides, treatment group relative to placebo [1]","reducing visceral adipose tissue, treatment group relative to placebo [1]",tolerability of the treatment (Example 7: 25 mg daily),"increasing insulin sensitivity, treatment group relative to placebo (Example 7: 25 mg daily)","lowering triglycerides, treatment group relative to placebo (Example 7: 25 mg daily)","reducing visceral adipose tissue, treatment group relative to placebo (Example 7: 25 mg daily)"
CN1C(=O)C=C[C@]2(C)[C@H]3CC[C@]4(C)[C@@H](C(=O)Nc5ccccc5C(F)(F)F)CC[C@H]4[C@@H]3CC[C@@H]12 [N-(2-trifluoromethyl-phenyl)-3-oxo-4-aza-4-methyl-5α-androst-1-ene-17β-carboxamide],well tolerated,significant improvement,significant improvement,significant improvement,–,–,–,–
Cc1ccc(O[C@H]2C[C@H]3[C@@H]4[C@@H](C)C[C@H]5NC(=O)C=C[C@]5(C)[C@H]4CC[C@]3(C)C2)cc1 [3-oxo-4-aza-7β-methyl-16β-(4-methylphenoxy)-5α-androst-1-ene],–,–,–,–,well tolerated,significant improvement,significant improvement,significant improvement
